Some test systems named below: HT29 colon; PC-3 prostate; MOLT-4 leukemia; ACHN renal; SK-MEL-28 melanoma; SR leukemia; RXF 393 renal; HOP-92 NSCLC; A549 NSCLC; HOP-62 NSCLC.
What all share (experiment): NCI tumour cell line growth inhibition, 48 h

Where “and” joins values, the source holds several entries; their conditions need not be identical. Equal values may be shown once.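 1) Cells in 96-well plates. 2) Compound, 48 h, 5 concentrations. 3) Linear interpolation between surrounding doses. 4) Unreached endpoint = highest concentration. GI50 is the concentration that inhibits growth by half. At the TGI there is no net growth.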

As to `O=c1oc2ccc(Cl)cc2c(=O)n1-c1ccc(Cl)cc1F`, the GI50 is 3.33 µM in the experiment with HT29 colon; 0.812 µM in the experiment on PC-3 prostate; 0.581 µM in the experiment with MOLT-4 leukemia; 0.512 µM in the experiment on ACHN renal; 0.379 µM in the experiment on SK-MEL-28 melanoma; 0.462 µM in the experiment with SR leukemia. The GI50 is 0.512 µM in the experiment with RXF 393 renal, 0.143 µM in the experiment with HOP-92 NSCLC, 0.998 µM with A549 NSCLC and 0.622 µM in the experiment on HOP-62 NSCLC. Further, the TGI in the experiment on HT29 colon is over 33.5 µM; in the experiment on PC-3 prostate, 5.04 µM; with MOLT-4 leukemia, 2.69 µM; in the experiment on ACHN renal, 8.32 µM; in the experiment with SK-MEL-28 melanoma it was 2.29 µM; in the experiment on RXF 393 renal it was 1.85 µM. The TGI was 0.49 µM in the experiment with HOP-92 NSCLC, over 31.6 µM in the experiment with A549 NSCLC and 2.86 µM in the experiment on HOP-62 NSCLC.

Turning to `CN(C)CC/C=C1\c2ccccc2Sc2ccc(Cl)cc21`, the GI50 with HT29 colon was 1.98 µM; in the experiment on PC-3 prostate, 3.03 µM; with MOLT-4 leukemia it was 3.44 µM; in the experiment with ACHN renal it was 3.61 µM; in the experiment with SK-MEL-28 melanoma, 1.74 µM; in the experiment on SR leukemia, 3.29 µM. Besides, the GI50 with RXF 393 renal was 1.86 µM; with HOP-92 NSCLC, 0.379 µM; with A549 NSCLC, 2.87 µM; with HOP-62 NSCLC, 1.94 µM. Besides, the TGI is 3.96 µM and 16.4 µM in the experiment on HT29 colon; 12.5 µM and 26 µM in the experiment on PC-3 prostate; 9.98 µM and 25.9 µM in the experiment with MOLT-4 leukemia; 14.4 µM and 29.6 µM with ACHN renal; 3.11 µM and 20.2 µM in the experiment with SK-MEL-28 melanoma; 8.76 µM with SR leukemia. Besides, the TGI in the experiment on RXF 393 renal is 5.59 µM and 28.3 µM; in the experiment on HOP-92 NSCLC, 3.39 µM and 18.7 µM; in the experiment on A549 NSCLC it was 11.4 µM and 28.9 µM; in the experiment on HOP-62 NSCLC, 5.44 µM and 28 µM.

As for `N=c1nc(N)c2cc3c(N)nc(=N)c3cc12`, the TGI is over 100 µM in the experiment on HT29 colon; over 100 µM in the experiment with PC-3 prostate; over 61 µM in the experiment on MOLT-4 leukemia; over 100 µM in the experiment on ACHN renal; 10.7 µM in the experiment with SK-MEL-28 melanoma; 56.5 µM in the experiment with SR leukemia. For the same compound, the TGI is 25.3 µM in the experiment with RXF 393 renal, 25.6 µM in the experiment on HOP-92 NSCLC, over 100 µM with A549 NSCLC and 38.5 µM with HOP-62 NSCLC.

As to `C/C(=C\c1ccn(-c2ccc(N)c(C(F)(F)F)c2)n1)[C@@H]1C[C@@H]2O[C@]2(C)CCC[C@H](C)[C@H](O)[C@@H](C)C(=O)C(C)(C)[C@@H](O)CC(=O)O1`, the GI50 in the experiment with HT29 colon was 0.00542 µM; in the experiment on PC-3 prostate, 0.0119 µM; in the experiment on MOLT-4 leukemia it was 0.0166 µM; in the experiment on ACHN renal it was 0.0268 µM; with SK-MEL-28 melanoma, 3.87 µM; with SR leukemia it was 0.00813 µM. The GI50 was 0.0111 µM with RXF 393 renal, 0.0161 µM in the experiment with HOP-92 NSCLC, under 0.0116 µM with A549 NSCLC and 0.0212 µM in the experiment on HOP-62 NSCLC. Besides, the TGI in the experiment on HT29 colon is 6.13 µM; with PC-3 prostate it was over 31 µM; in the experiment with MOLT-4 leukemia, 19.8 µM; in the experiment with ACHN renal, over 29.2 µM; with SK-MEL-28 melanoma it was over 32.5 µM; in the experiment with SR leukemia, 8.64 µM. For the same compound, the TGI is 0.435 µM in the experiment with RXF 393 renal, 23.9 µM in the experiment on HOP-92 NSCLC, over 32.5 µM in the experiment with A549 NSCLC and over 20.3 µM in the experiment with HOP-62 NSCLC.

As to `CNC(=O)c1ccc(Nc2ncc(C(F)(F)F)c(NCc3nccnc3N(C)S(C)(=O)=O)n2)cc1`, the GI50 in the experiment on HT29 colon was 3.41 µM and 2.75 µM and 3.21 µM; in the experiment with PC-3 prostate, 3.54 µM and 3.41 µM and 2.85 µM; in the experiment with MOLT-4 leukemia it was 3.25 µM and 2.64 µM and 3.09 µM; in the experiment on ACHN renal, 1.67 µM and 1.77 µM and 1.5 µM; with SK-MEL-28 melanoma it was 3.96 µM and 2.88 µM and 2.64 µM; with SR leukemia it was 1.91 µM and 1.33 µM and 2.39 µM. For the same compound, the GI50 is 0.637 µM and 1.39 µM and 0.575 µM in the experiment with RXF 393 renal; 2.79 µM and 2.94 µM and 3.13 µM in the experiment with A549 NSCLC; 2.16 µM and 2.07 µM and 1.98 µM in the experiment on HOP-62 NSCLC. Also, the TGI was > 10 µM and 8.63 µM and 11.3 µM in the experiment on HT29 colon; > 10 µM and 14.3 µM and 13.2 µM with PC-3 prostate; 9.97 µM and 8.58 µM and 8.76 µM with MOLT-4 leukemia; > 10 µM and 9.44 µM and 8.18 µM in the experiment on ACHN renal; > 10 µM and 9.49 µM and 9.43 µM in the experiment with SK-MEL-28 melanoma; 8.17 µM and 7.7 µM and 9.42 µM in the experiment on SR leukemia. In addition, the TGI is 2.74 µM and 3.76 µM and 2.85 µM in the experiment on RXF 393 renal; 2.37 µM and 6.54 µM and 6.4 µM with HOP-92 NSCLC; > 10 µM and 8.79 µM and 12.1 µM in the experiment with A549 NSCLC; > 10 µM and 9.71 µM and 9.8 µM with HOP-62 NSCLC.

`CCOC(=O)[C@H](CSSc1ncnc2cc[nH]c12)NC(=O)[C@@H](C)c1ccc2cc(OC)ccc2c1`: the GI50 in the experiment on HT29 colon was 1.38 µM; in the experiment with PC-3 prostate it was 2.78 µM; with MOLT-4 leukemia, 0.388 µM; with ACHN renal it was 2.1 µM; in the experiment with SK-MEL-28 melanoma, 13.8 µM; with SR leukemia it was 0.385 µM. Further, the GI50 with RXF 393 renal was 1.62 µM; in the experiment with HOP-92 NSCLC, 0.39 µM; in the experiment on A549 NSCLC it was 6.36 µM; in the experiment with HOP-62 NSCLC, 0.408 µM. Also, the TGI in the experiment on HT29 colon, in the experiment with PC-3 prostate, in the experiment on MOLT-4 leukemia, with ACHN renal, in the experiment on SK-MEL-28 melanoma and with SR leukemia was over 100 µM in each case. The TGI with RXF 393 renal is over 100 µM; with HOP-92 NSCLC, 41 µM; in the experiment on A549 NSCLC it was over 100 µM; in the experiment with HOP-62 NSCLC it was over 100 µM.

As for `COc1ccc(-c2coc3ncnc(N)c23)cc1`, the GI50 in the experiment with HT29 colon, with PC-3 prostate, with MOLT-4 leukemia, with ACHN renal, in the experiment on SK-MEL-28 melanoma and in the experiment on SR leukemia was over 25 µM each time. Moreover, the GI50 was over 25 µM with RXF 393 renal, over 14 µM in the experiment with HOP-92 NSCLC, over 25 µM in the experiment with A549 NSCLC and over 25 µM in the experiment with HOP-62 NSCLC. In addition, the TGI in the experiment with HT29 colon, with PC-3 prostate, in the experiment on MOLT-4 leukemia, in the experiment with ACHN renal, in the experiment on SK-MEL-28 melanoma and in the experiment with SR leukemia was over 25 µM throughout. The TGI with RXF 393 renal, with HOP-92 NSCLC, in the experiment with A549 NSCLC and with HOP-62 NSCLC was over 25 µM in each case.

As for `O=C(O)C(=O)Cc1ccc2c(c1)OCO2`, the TGI in the experiment with HT29 colon, in the experiment with PC-3 prostate, in the experiment on MOLT-4 leukemia, in the experiment on ACHN renal, in the experiment on SK-MEL-28 melanoma and with SR leukemia was over 100 µM in each case. The TGI in the experiment with RXF 393 renal, with HOP-92 NSCLC, in the experiment on A549 NSCLC and with HOP-62 NSCLC was over 100 µM throughout.

`COc1ccc(C(=O)/C=C/c2cc3ccccc3[nH]c2=O)cc1`: the GI50 in the experiment with HT29 colon is 19.3 µM; in the experiment on PC-3 prostate, over 59.7 µM; with MOLT-4 leukemia, 22.2 µM; in the experiment on ACHN renal, 22.9 µM; in the experiment with SK-MEL-28 melanoma, 33.9 µM; in the experiment with SR leukemia it was 17.3 µM. In addition, the GI50 was 19.7 µM in the experiment on RXF 393 renal, 17 µM in the experiment on HOP-92 NSCLC, 20 µM with A549 NSCLC and 20.5 µM in the experiment with HOP-62 NSCLC. Also, the TGI is over 80.5 µM in the experiment with HT29 colon; over 100 µM in the experiment with PC-3 prostate; over 100 µM in the experiment with MOLT-4 leukemia; over 55.1 µM in the experiment with ACHN renal; over 67.4 µM in the experiment on SK-MEL-28 melanoma; over 100 µM in the experiment on SR leukemia. The TGI with RXF 393 renal was over 44 µM; in the experiment on HOP-92 NSCLC, 37.3 µM; in the experiment with A549 NSCLC it was over 100 µM; in the experiment on HOP-62 NSCLC, 42.6 µM.

Values taken from PubChem BioAssay (NCI).
